Measurements as given in patent US12110313B2, “Engineered bacterial ribosome compositions and methods” (ARIZONA BOARD OF REGENTS ON BEHALF OF ARIZONA STATE …, priority 2019, dated 2024).
Changes are numbered by the printed parent chain.

Legend:
[1] = tested on: wild-type ribosomes; experiment: Incorporation of glycosylated amino acids into proteins from activated suppressor tRNAs by wild-type ribosomes; type: biochemical, E. coli; settings: nonsense codon suppression with activated suppressor tRNA
Excerpt: FIG. 3 depicts glycosylated amino acids incorporated into proteins by wild-type E. coli ribosomes.
Many glycosylated amino acids can be incorporated into proteins in quite good yield from activated suppressor tRNAs by nonsense codon suppression employing wild-type ribosomes. However, in numerous experiments, when any of these was O- or N-acetylated at one or more positions, the result was virtually complete loss of the ability of the activated tRNAs to suppress nonsense codons. Accordingly, we have used O-GlcNAc-puromycin (FIG. 4) to select modified ribosomes capable of incorporating N-acetylglycosyl amino acids.
Post-translational protein glycosylation is both ubiquitous in nature and quite important. […] However, for whatever reason(s), neither O- nor N-acetylated glycosyl amino acids could be incorporated in good yield with wild-type ribosomes. We wish to select modified ribosomes capable of incorporating O- or N-acetylated glycosyl amino acids efficiently.

[2] = tested on: CD40 expression in RAW 264.7 mouse macrophage cells; experiment: CD40 upregulation in RAW 264.7 cells by flow cytometry with PE-conjugated anti-mouse CD40 antibody; type: cell-based
Experimental: FIG. 6. Flow cytometry analysis of RAW 264.7 cells treated with murine IFNs and probed with PE-conjugated anti-mouse CD40 antibody. Upper left, 0.6 pg/mL glycosylated IFN; upper right, 6 pg/mL non-glycosylated IFN; lower left, 0.6 pg/mL non-glycosylated IFN; lower right, control lacking IFN.
These four modified INF-βs were tested in parallel with wild-type (fully glycosylated) mouse IFN-β for their activities. Our assay system uses RAW 264.7 mouse macrophage cells (ATCC TIB-71), which have been transformed using Abelson murine leukemia virus. […] CD40 upregulation was probed using a PE (phycoerythrin)-conjugated anti-mouse CD40 antibody. As shown (FIG. 6), this assay system has been used successfully to compare fully glycosylated and non-glycosylated murine INF-βs by flow cytometry.

[3] = tested on: antiviral activity; settings: murine INF-β, modification at position 29; cited from earlier work

## N[C@@H](Cc1ccc(OC2O[C@H](CO)[C@@H](O[C@@H]3O[C@H](CO)[C@H](O)[C@H](O)[C@H]3O)[C@H](O)[C@H]2O)cc1)C(=O)O (stereo partly drawn) [O-lactosyltyrosine]
[1]
  incorporation into proteins by wild-type ribosomes: incorporated into proteins quite well

## glycosylated IFN-β: fully glycosylated murine interferon-β
[2]
  response in CD40 upregulation assay: dose-dependent responses
[2]; CD40 upregulation
  potency relative to non-glycosylated IFN-β: about 10 fold

B1: Asp29: murine INF-β with replacement of Asn29 with Asp29 (protein, UniProt P01575 22-182, looked up, variant N29D)
Interferon beta: INYKQLQLQERTNIRKCQELLEQLNGKIDLTYRADFKIPMEMTEKMQKSYTAFAIQEMLQNVFLVFRNNFSSTGWNETIVVRLLDELHQQTVFLKTVLEEKQEERLTWEMSSTALHLKSYYWRVQRYLKLMKYNSYAWMVVRAEIFRNFLIIRRLTRNFQN
[3]
  reduction of antiviral activity from wild-type: two-fold

B2: non-glycosylated IFN-β: non-glycosylated murine interferon-β (protein, UniProt P01575 22-182, looked up)
Interferon beta: B1 Interferon beta with D29N
modifications: non-glycosylated
[2]
  response in CD40 upregulation assay: dose-dependent responses

B3: Ala29: murine INF-β with replacement of Asn29 with Ala29 (protein, UniProt P01575 22-182, looked up, variant N29A)
Interferon beta: B1 Interferon beta with D29A
[3]
  reduction of antiviral activity from wild-type: 10 fold
